Test results taken from ChEMBL document CHEMBL3507680, “University of Dundee, Gates Library screen for HepG2 cell viability”.

Experiment: Human HepG2 cell viability assay in 384 well format
Assay type: toxicity, cell-based
Parameters: dose 125 nL, time 70.5 hour; cytotoxicity at 70.5 h: concentration not given beside the values
Settings: HepG2 cells, read-out: Inhibition

SMILES	cytotoxicity at 70.5 h [%]
Cn1cc(N2CC3(CCN(Cc4ccoc4)CC3)OCC2=O)cn1	-1.7
COc1ccc(F)cc1C[S+]([O-])CC(=O)NCc1ccccc1C (stereo unspecified)	11
Cc1noc(C(C)N2CCN(CCn3ccccc3=O)CC2)n1 (stereo unspecified)	-1.66
CC(C)c1cc(N2CCSCC2)n2nccc2n1	19.1
CCC1CN(CC(=O)NCCN(CC)CC)c2ccccc2S1 (stereo unspecified)	-6.69
Cc1nn2cccnc2c1C(=O)NCc1ccccc1OCC1CC1	-13.8
Cc1cc(NCCn2cccn2)n2ncnc2n1	0.75
Cc1nn(C)c(N2CCOCC2)c1CNC1CCS(=O)(=O)C1 (stereo unspecified)	-6.08
CCCn1nc(C(=O)NCCc2nnc3n2CCC3)ccc1=O	1.09
O=C(C1CCC1)N1CCc2[nH]cnc2C12CCN(C1CCOCC1)CC2	-0.358
CCC1CN(C(=O)CN2CCN(c3nccc(OC)n3)CC2)CCO1 (stereo unspecified)	-12.3
CN(Cc1ccco1)[C@@H]1CN(CC2CCOCC2)C[C@@H]2CCCO[C@@H]21	4.38
O=C(NCc1ccco1)[C@H]1COC[C@H]2CN(Cc3ccoc3)C[C@H]21	13.6
Cc1nn(C)c2nc(NC(C)c3nnn[nH]3)sc12 (stereo unspecified)	11.9
CNC(=O)CCc1cc(C)nc(C2CCN(C(=O)CN(C)C)CC2)c1	-3.32
CCOC(=O)c1ccc(CNC(=O)c2ccc(Cl)cn2)o1	-6.63
CC[C@H](C)[C@@H](CO)NC(C)Cc1ccc(Cl)cc1 (stereo partly specified)	-2.7
COc1cc(CNC(C)c2nnc3n2CCC3)cc(OC)c1 (stereo unspecified)	-9.55
CCc1ccc(C(C)NC(=O)CN(C)Cc2ccc(C)o2)cc1 (stereo unspecified)	-15
O=C1CCCN1c1cccc(CNCc2nc(-c3ccco3)no2)c1	-17.4
Cc1cncc(C2CCN(Cc3ccc(S(C)(=O)=O)cc3)CC2)n1	-9.92
Cc1nccc(N2C[C@H](NC(=O)CNS(C)(=O)=O)[C@@H](C3CC3)C2)n1	-5
N#Cc1ccc(OC2CCN(C(=O)c3ccc(Br)o3)CC2)nc1	20.2

SMILES	cytotoxicity at 70.5 h [%]
O=C(O)c1csc(S(=O)(=O)Nc2cccc(OCC(F)(F)F)c2)c1	-3.57
Cc1cnn(Cc2cc(F)ccc2F)c1NC(=O)NC1CC1	-7.32
Cn1cc(NC(=O)NCc2ccoc2)ccc1=O	-3.69
CS(=O)(=O)N1CCC(C(=O)Nc2nnc(C(F)(F)F)[nH]2)CC1	-6.85
O=C1COc2ccc(C(=O)NS(=O)(=O)c3ccccc3Cl)cc2N1	-14.9
O=C(N[C@@H]1CNCCC[C@H]1O)c1ccc(OCc2ccccc2)cc1	-2.25
CC(NC(=O)NCCc1cnn(C)c1)c1ccc(Cl)s1 (stereo unspecified)	-15
O=C(Cc1ccsc1)N1CCc2ccc(=O)n(CC3CC3)c2CC1	-3.62
COc1c(CNC(c2ccccc2F)c2nccn2C)c(C)nn1C (stereo unspecified)	-4.51
O=C(Cn1c(=O)oc2ccccc21)N1Cc2cncnc2C1	-5.29
CS(=O)(=O)c1ccc(-c2c[nH]c([C@@H]3COCCN3)n2)cc1	-8.19
N[C@H]1CN(C(=O)c2cnc3cc(Cl)ccc3c2O)C[C@@H]1C1CC1	5.93
CS(=O)(=O)N1CCC2(CC1)c1ccccc1[C@@H](N1CCSCC1)[C@@H]2O	-0.762
CC1CCN(Cc2ccc(CNC(=O)c3ccn(C)c(=O)c3)cc2)CC1	-9.84
Cc1ccc2c(c1)N(C(=O)c1nccnc1N)CC(C)O2 (stereo unspecified)	-3.11
CCc1ccc(C(=O)N2C[C@@H]3COC[C@@H](C(=O)NC)[C@@H]3C2)cc1	-0.591
Cc1ccccc1CN1CCCN(C2CCOC2=O)CC1 (stereo unspecified)	3.44
CN1CCC(NCC(O)c2cccc(OCc3ccccc3)c2)CC1 (stereo unspecified)	4.18
CC(C)(NCC(=O)N1CCCC(C(N)=O)C1)c1ccc(Cl)cc1 (stereo unspecified)	-3.83
CC(=O)N1CCC(c2noc(C3CCC(=O)N3)n2)CC1 (stereo unspecified)	16.7
CN(CCC#N)C(=O)CSc1cc(F)ccc1F	5.2
Cc1noc(C)c1CN1CC[C@H]2OCC[C@@]2(C(=O)N2CCCC2)C1	-5.9
COc1cccc(-c2ccc3nc(C4CCN(C(C)=O)CC4)nn3c2)c1	-4.61

SMILES	cytotoxicity at 70.5 h [%]
O=C1CO[C@H]2CN(Cc3cccnc3)C[C@H]2N1	-1.16
Cc1ncc(CNCC2CCC(C(N)=O)CC2)n1-c1ccccc1 (stereo unspecified)	11.9
Cc1nc(-c2ccccc2C)n(CC(=O)NC(C)C2CC2)n1 (stereo unspecified)	-5.7
CCn1ncc2c1C(COC)CN(S(=O)(=O)C1CC1)C2 (stereo unspecified)	-8.31
CCN1C[C@H]2[C@@H](C1)N(S(=O)(=O)c1ccccc1)CC[C@H]2OC	-2.93
CN(C)[C@@H]1CCN(C(=O)Cc2cccs2)[C@H]1Cc1ccncc1	-8
Cc1nn(C)cc1CN(C)c1nccc(-c2cn(C)nc2C)n1	-0.948
Cc1nc(C(=O)N(CC2CCCO2)c2ccncc2)cs1 (stereo unspecified)	-16.6
O=C(NCC(F)F)c1ccc(S(=O)(=O)NCCc2c[nH]cn2)cc1	-6.02
COc1cccc(-n2c(C)cc(C(=O)NCCCC(N)=O)c2C)c1	-10.3
CN(Cc1noc(C2CC2)n1)C1CCN(CC(=O)N2CCOCC2)C1 (stereo unspecified)	-3.02
Cc1cc(C(F)(F)F)c2c(=O)n(Cc3cc(C)on3)n(C)c2n1	-8.02
CCC(c1ccncc1)N(C)S(C)(=O)=O (stereo unspecified)	-1.1
COc1cc(C)nc(N2CCN(C(=O)c3cccc(C#N)c3)CC2)n1	-5.09
CC(C)c1cc(C2CCCN2C(=O)CN2C(=O)CCNC2=O)no1 (stereo unspecified)	-5.21
Cc1nn(C)c2nc(N3CCCCC3c3ccc(F)cc3)sc12 (stereo unspecified)	0.992
CN(Cc1cccnc1)[C@@H]1CN(Cc2cnn(C)c2)[C@@H]2CCCO[C@H]12	-6.78
COc1ccc(-c2nnc(SC(C)C(=O)NC(C)(C)C)[nH]2)c(OC)c1 (stereo unspecified)	32.5
COC(=O)C1CCN(C(=O)Cn2ccc(-c3ccc(F)cc3)n2)CC1	-8.67
CC(C)(NC(=O)c1cnc(-c2ccccc2F)s1)C(N)=O	-10.3
Cc1ccc(CCC(=O)N2CCn3c(nnc3C(C)C)C2)cc1Cl	24.9
Cc1ccc(CN2CCN(C3CSCCSC3)CC2CCO)o1 (stereo unspecified)	-6.76
O=C(c1cc(F)cc(Cl)c1)N1CCN(CCO)[C@@H]2CS(=O)(=O)C[C@@H]21	-0.458

SMILES	cytotoxicity at 70.5 h [%]
Cc1ccc(C(=O)NCCC2CCN(C)CC2)cc1N(C)S(C)(=O)=O	24
CC(CNC(=O)c1cccc(C#N)c1)N1CCc2ccccc21 (stereo unspecified)	-11.4
CNS(=O)(=O)CCCN1CCCCCC1c1ccc(C)o1 (stereo unspecified)	-11
CC(C)CCNC(=O)c1csc(NC2CC2)n1	-9.92
O=C(NC1(C(=O)O)CCCC1)C1Cc2cc(F)ccc2O1 (stereo unspecified)	0.608
Cc1cnn(C2CN(CC(O)Cn3cccn3)C2)c1 (stereo unspecified)	7.89
CC(C)[C@@H]1CN(C(=O)C2(c3ccccc3)CCN(C)CC2)C[C@H]1N(C)C	9.05
COC[C@@H]1CC[C@H]2[C@H](CCN2S(=O)(=O)c2cccc(C)c2)O1	-11.1
CO[C@@H]1CC[C@H]2[C@H]1OCCN2C(=O)c1ccc(C)nc1	-3.99
CC(CNC(=O)c1ccc(Cl)cc1F)N1CCCC1 (stereo unspecified)	-16.4
CC(C)S(=O)(=O)C(C)C(=O)NCc1ccccc1OCc1ccccc1 (stereo unspecified)	-1.68
Cc1ncsc1CCC(=O)N1CCn2cccc2C1c1cccnc1 (stereo unspecified)	-3.49
CC(NCc1c(C(C)C)nn(C)c1N1CCOCC1)C(N)=O (stereo unspecified)	15.3
CCOc1ccccc1OC1CCN(C(=O)c2nc(=O)[nH][nH]2)CC1	27.9
Cc1nc(Cn2c3c(ccc2=O)CC(NC(N)=O)CC3)cs1 (stereo unspecified)	5.59
COCCNC(=O)c1cc2c(c3ccccc3n2C)n1C(=O)N(C)C	-9.07
Cc1ccccc1-c1cc(NC(=O)NC2CCC(O)CC2)n(CCO)n1 (stereo unspecified)	-3.45
Cc1cc(C)n(CCC2CC(=O)Nc3cc(O)c(C)cc32)n1 (stereo unspecified)	-5.9
CC(C)CNC(=O)CNc1c(NCc2ccncc2)c(=O)c1=O	4.58
CC1(c2ccccc2)CCC(=O)N(CC2(N3CCOCC3)CCCC2)C1 (stereo unspecified)	6.77
CCC(CC)C(=O)NC1CCCc2nc(N3CCOCC3)ncc21 (stereo unspecified)	-4.12
CN1C(=O)COc2ccc(C(=O)Cn3cnc4ccsc4c3=O)cc21	17.1
Clc1cccc(-c2nc(CNC3CCc4ncnn4C3)co2)c1 (stereo unspecified)	11.6

SMILES	cytotoxicity at 70.5 h [%]
c1ccc(CN2CCC3(CC2)CC(Nc2nccs2)CO3)nc1 (stereo unspecified)	-8.19
Cc1nc(-c2ccc(CC(=O)N3CCN(C(=O)C4CC4)CC3)cc2)cs1	-1.62
Cn1nccc1C(=O)N1CCCN(CCCc2ccccc2)CC1	-0.514
COCCCN1CCCN(C(C)C(=O)Nc2cccc(I)c2)CC1 (stereo unspecified)	21.2
Cc1cccc(CN2CCc3nnc(CN4CCCCC4)n3CC2)n1	-5.9
Cn1cc(CNC2CCc3c(ccc(=O)n3Cc3ccncc3)C2)cn1 (stereo unspecified)	-15.3
CC(C)NC(=O)Cn1cc(-c2ccccc2)ncc1=O	-7.17
COC(=O)CNC(=O)N1CCN(c2nc3ccccc3n2C)CC1	26.4
Cc1nc(CNC(=O)NCC2(C)CCCc3ccccc32)no1 (stereo unspecified)	29.3
O=C(NC[C@H]1C[C@@H]2CCN1C[C@@H]2CN1CCCCC1)Nc1ccccc1	-1.01
CCCN(CC(F)F)C(=O)CCc1c(C)nc2cc(O)nn2c1C	23.2
O=C(c1ccccc1-n1cccn1)N1CCC(Nc2cccnn2)CC1	-8.8
Cn1nnc2c1CCN(Cc1ccncc1)C2COCC1CC1 (stereo unspecified)	-9.81
COc1ccc(S(=O)(=O)NCCCc2ccc(N(C)C)cc2)cc1Cl	-3.09
Cc1ccc(C(C)C(=O)N2CCCN(Cc3cscn3)CC2)cc1 (stereo unspecified)	5.25
CNc1cccc(C2CCCN(C(=O)c3ccn(C)n3)C2)n1 (stereo unspecified)	16.5
Cc1ccsc1C(=O)N1CCc2ncc(Cn3cccn3)n2CC1	-6.33
Cc1csc(N2CCCN(C(=O)C(C)n3ccnc3)CC2)n1 (stereo unspecified)	-3.25
O=S(=O)(CCN1CCOC(Cn2cccn2)C1)C(F)(F)F (stereo unspecified)	11.7
